Measurements taken from patent publication US10617734B2, “STAT3 and ERK signal pathway inhibitor comprising mogrosides and analogs thereof” (BEIJING UNIVERSITY OF AGRICULTURE, priority 2014, dated 2020).

Columns and labels:
[1] = tested on: phosphorylated ERK1/2 (P-ERK1/2); test: Western Blotting of phosphorylated ERK1/2 in U937 cells; assay type: cell-based; conditions: 10 μmol/L, 24 hours
Procedure: (§1) The inhibition of the STAT3 and ERK signal pathways achieved by Mogroside I E1, Mogroside II A2 and mogrol was detected by Western Blotting, specifically:
Group 1: histiocytic lymphoma U937 cells (1×10^6 cells/well) were inoculated into a 6-well culture plate for staying overnight, and 0 and 10 μmol/L of Mogroside I E1, Mogroside II A2 and mogrol were added respectively, and the culture was continued for 24 hours;
(§2) After the termination of the cell culture, the culture solution was removed, and the residue was washed with PBS (0.01 mol/L, pH 7.4), and then a cell lysis solution containing protease inhibitors was added at an amount of 50 μl/well, and the mixture was placed in an ice bath for lysis at 4° C. for 30 min and then centrifuged at 14000 r/min for 10 min, and then total proteins were obtained from the supernatant;
(§3) The protein concentrations were measured with bovine serum albumin (BSA) as the standard. 50 μg of the total proteins was separated by polyacrylamide gel electrophoresis with 12% […], electrophoretically transferred to a PVDF membrane (polyvinylidene fluoride membrane), and blocked for 1 h by 5% of skim milk (containing 0.1% of Tween 20), and then antibodies p-STAT3 (Tyr705) and p-Erk1/2 as well as β-actin were added, and the primary antibody was incubated at 4° C. overnight (β-actin was used as reference in loading amount); the membrane was washed for 3 times with TBS-T, 5 min each time; secondary antibody marked by horseradish peroxidase (HRP) was added for incubation at room temperature for 1 h, the membrane was washed for 3 times with a wash solution (TBS-T), 10 min each time, and then ECL was added for incubation in dark for 5 min, and subsequently, a fluorescence imaging analyzer was used for image development and scanning analysis, and the results of Western Blotting detection are shown in FIGS. 4 to 6.

[2] = tested on: phosphorylated ERK1/2 (P-ERK1/2); test: Western Blotting of phosphorylated ERK1/2 in K562 cells; assay type: cell-based, human; conditions: leukemia cells K562, 10 μmol/L, 24 hours
Procedure: as §1
Group 3: leukemia cells K562 (1×10^6 cells/well) were inoculated into a 6-well culture plate for staying overnight, and 0 and 10 μmol/L of Mogroside I E1 Mogroside II A2 and mogrol were added respectively, and the culture was continued for 24 hours;
as §2, §3

Q: Which results are given for `C[C@H](CC[C@@H](O)C(C)(C)O)[C@H]1CC[C@@]2(C)[C@@H]3CC=C4[C@@H](CC[C@H](O)C4(C)C)[C@]3(C)[C@H](O)C[C@]12C` [mogrol]?
A: expression level of phosphorylated ERK1/2 (P-ERK1/2) [1]: significantly decreased; expression level of phosphorylated ERK1/2 (P-ERK1/2) [2]: significantly decreased
